Source: PMC8519022, “Diarylethene‐Based Photoswitchable Inhibitors of Serine Proteases” (Angewandte Chemie (International Ed. in English), 2021)
*1 amine or outer side, *2 acyl side, *3 side chain or, on linkers, in order; H or OH if unused. Where a SMILES comes first, the peptide text is derived from it. Bridges are numbered along the chain shown (N, C = ends). Triazole bridges read from a SMILES are 1,4-linked. [ ]: non-standard residue; d: D form. X1 = Cc1sc(C(=O)[C@@H]2CCCN2[*:2])cc1C1=C(c2cc(C(=O)[*:1])sc2C)CCC1; Orn(N3) = [N-]=[N+]=NCCC[C@H](N)C(=O)O; Aha = [N-]=[N+]=NCC[C@H](N)C(=O)O; hCys = N[C@@H](CCS)C(=O)O; Pra = C#CC[C@H](N)C(=O)O

Assays:
[1] = target: T1, trypsin (Bos taurus, UniProt P00760); conditions: for k H [M^−1 s^−1] (closed): pH 8.2
T1 sequence (P00760 24-246): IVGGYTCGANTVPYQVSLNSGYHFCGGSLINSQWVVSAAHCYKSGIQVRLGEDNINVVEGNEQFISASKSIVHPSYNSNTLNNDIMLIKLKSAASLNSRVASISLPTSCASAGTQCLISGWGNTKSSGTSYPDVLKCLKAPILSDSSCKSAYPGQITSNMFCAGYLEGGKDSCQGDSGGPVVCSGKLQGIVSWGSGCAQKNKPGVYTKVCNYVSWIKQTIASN
Experimental: Analysis of the proteolytic stability
Proteolytic stability of the peptides was characterized by determining hydrolysis rates (kH) by the action of trypsin in a 50 mM Tris–
HCl buffer, pH 8.2, supplemented with 25 mM CaCl2 and 0.005% Tween®20 at 22°C. The peptides at a concentration of 50 μM were
mixed with trypsin (0.5 μM) in a 2 mL total volume. At selected time intervals, 70 μL samples of the mixture were taken, quenched
by addition 130 μL 2% aqueous formic acid, and immediately analyzed by analytical HPLC. The kH values were calculated from the
time-dependent data assuming zero-order kinetics (zero-order kinetics applies due to the high substrate/enzyme ratio of 100 to 1).
For the fitting the linear part of the hydrolysis curve was taken excluding the last time point in which the entire peptide inhibitor was
analogues could hydrolyze at two positions: at the Lys (P1 position) of the inhibitory loop and after the stabilizing loop’s arginine
residue (P4 position).[S6] The ultimate product (i.e., cleaved at both positions) had, therefore, a MALDI-TOF-MS detectable mass
The identity of each peak was confirmed by MALDI -TOF-MS. Detection – 220 nm, hydrolysis time is indicated at each chromatogram.

[2] = target: T2, Bos taurus trypsin 1 (T1) (Bos taurus, UniProt P00760); assay: Trypsin inhibition, Ki by Lineweaver-Burk analysis; conditions: for K i (closed) /K i (open): ratio of ring-closed to ring-open isomer, T1;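 on all read-outs here: trypsin activity followed by spectrophotometric hydrolysis kinetics of the chromogenic substrate BAPNA in Tris buffer, Ki obtained from double-reciprocal Lineweaver–Burk plots at several substrate concentrations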
T2 sequence (P00760 24-246): T1 sequence (P00760 24-246)
Experimental: Protease inhibition assays
The inhibition of trypsin and α-chymotrypsin was investigated by two methods. First, the inhibition was determined at a fixed enzyme and substrate concentration, whereas the inhibitor concentration varied. By plotting the protease activity against an inhibitor’s concentration, IC50 (the half-maximal inhibitory concentration) was determined.
Lineweaver–Burk analysis (see below), the Ki values for all peptide inhibitors were determined with high accuracy.
All measurements were performed with p-nitroaniline-based chromogenic substrates (λabs = 405 nm) in 96-well microtiter plates using
EpochTM 2 microplate spectrophotometer. For trypsin measurements the Tris buffer (50 mM Tris-HCl, 25 mM CaCl2, 0.005% Tween®
For the measurements, a fresh 0.92 µM trypsin solution was prepared from the storage aliquot and kept on ice.
A stock solution of the substrate BAPNA (Nα-Benzoyl-DL-arginine 4-nitroanilide hydrochloride) at the concentration of 50 mM in
aqueous dimethyl sulfoxide (DMSO) (100 mg of BAPNA in 4.6 mL of DMSO:water mixture 1:1) was pre pared and stored at RT.
peptide solutions at the concentration of 100 µM, which was further diluted to 10, 1, or 0.1 µM if required, were prepared in Milli-Q®
deionized ultrapure water.
For the determination of IC50, a double dilution series of inhibit ors were prepared in a 96 -well plate (12 concentrations, two repeats
for each concentration, 200 µL of Tris buffer in each well). Subsequently, a trypsin solution (20 µL, 150 nM) was added to ea ch well
with the tested peptide and to the control row. Soluti ons in each well were intensely mixed using a multichannel pipette (from lower
concentration to higher). After a pre -incubation period (5 min), the substrate BAPNA was added to each well (20 µL, 25 mM).
solutions were thoroughly mixed with the multicha nnel pipette, and the kinetics of substrate hydrolysis was recorded with an interval
of 1 min between measurements over 20 min. The total volume in each well was 240 µL, final trypsin and BAPNA concentrations
were 12.5 nM and 2.08 mM, respectively. The mea n values of the two repeats of the slope of absorption vs. time curves were
calculated. The activities at different inhibitor concentrations were then calculated by taking the control curves’ slope val ues (no
inhibitor) as the 100% enzyme activity. The inh ibition activity IC 50 against α-chymotrypsin (α-chymotrypsin from bovine pancreas
type II) was measured in the same way except that a different substrate, Ac-EAPF-pNA (Ac-Glu-Ala-Pro-Phe-pNA), was used (20
Inhibitory constants Ki were determined by Lineweaver-Burk (LWB) double-reciprocal analysis according to a published protocol.[S5]
Briefly, a fresh inhibitor/enzyme mixture was prepared in a glass vial and distributed to 2x6 wells (200 µL in each well, enzyme
concentration after dilution 12 nM). An enzyme without an inhibitor was added to the control wells. Aliquots of varying substrate stock
solutions were added with a multichannel pipette to each well. For trypsin inhibition experiments, BAPNA (20 µL per well of 20, 22.7,
26, 29.8, 34, 40 mM) and for α-chymotrypsin Ac-EAPF-pNA (20 µL per well of 16, 12.48, 10, 8, 6.4, 5.44 mM) were used, respectively.
Well contents were thoroughly mixed using a multichannel pipette, and a plate reader was used to monitor the hydrolysis kinetics
(sampling interval of 1 min over 20 min).

[3] = Photostationary state under UV irradiation / photoconversion; type: physicochemical; conditions: deoxygenated water, 22 °C, continuous UV irradiation 320-400 nm; values with * by RP-HPLC
Experimental: Table S3 Photostationary states (PSS) for the studied peptides in deoxygenated water at 22 °C determined as the maximal conversion of the ring-open form to
ring-closed form under continuous UV irradiation (spectral range of 320-400 nm).
* As was determined by RP-HPLC analysis. […]

Row | SMILES | k H (closed) /k H (open) [1] | k H [M^−1 s^−1] (closed) [1] | Ki ([2]; K i [nM] (closed)) | Ki ([2]; K i [nM] (open)) | PSS, % (maximal conversion of ring-open to ring-closed form) [3] [%] | K i (closed) /K i (open) [2]
1 | CC[C@H](C)[C@@H]1NC(=O)[C@@H]2CCCN2C(=O)[C@@H]2CCCN2C(=O)[C@H]([C@@H](C)CC)NC(=O)[C@H](CO)NC(=O)[C@H](CCCCN)NC(=O)[C@H]([C@@H](C)O)NC(=O)[C@@H]2Cc3cn(nn3)CCC[C@H](NC1=O)C(=O)N[C@@H](CCCNC(=N)N)C(=O)N1CCC[C@H]1C(=O)c1cc(c(C)s1)C1=C(CCC1)c1cc(sc1C)C(=O)N[C@@H](Cc1ccccc1)C(=O)N2 [Peptide S7i] (F[Pra]TKSIPPI[Orn(N3)]R; triazole 2-10; linker N-C via X1) | 73 | 5.5±1×10^−1 M^−1 s^−1 | 7220 ± 360 | 263 ± 30 | – | –
2 | CC[C@H](C)[C@@H]1NC(=O)[C@@H]2CCCN2C(=O)[C@@H]2CCCN2C(=O)[C@H]([C@@H](C)CC)NC(=O)[C@H](CO)NC(=O)[C@H](CCCCN)NC(=O)[C@H]([C@@H](C)O)NC(=O)[C@@H]2Cc3cn(nn3)CC[C@H](NC1=O)C(=O)N[C@@H](CCCNC(=N)N)C(=O)N[C@@H](CC(C)C)C(=O)N1CCC[C@H]1C(=O)c1cc(c(C)s1)C1=C(CCC1)c1cc(sc1C)C(=O)N[C@@H](C(C)C)C(=O)N[C@@H](Cc1ccccc1)C(=O)N2 [Peptide S11i] (VF[Pra]TKSIPPI[Aha]RL; triazole 3-11; linker N-C via X1) | 3.3 | 9.1±1×10^−2 M^−1 s^−1 | – | 1720 ± 130 | 80.2 | 3.1
3 | CC[C@H](C)[C@@H]1NC(=O)[C@@H]2CCCN2C(=O)[C@@H]2CCCN2C(=O)[C@H]([C@@H](C)CC)NC(=O)[C@H](CO)NC(=O)[C@H](CCCCN)NC(=O)[C@H]([C@@H](C)O)NC(=O)[C@@H]2Cc3cn(nn3)CC[C@H](NC1=O)C(=O)N[C@@H](CCCNC(=N)N)C(=O)N1CCC[C@H]1C(=O)c1cc(c(C)s1)C1=C(CCC1)c1cc(sc1C)C(=O)N[C@@H](Cc1ccccc1)C(=O)N2 [Peptide S6i] (F[Pra]TKSIPPI[Aha]R; triazole 2-10; linker N-C via X1) | 5.8 | 1.1±0.2×10^−1 M^−1 s^−1 | – | 441 ± 43 | 39.6 | 17.5
4 | CC[C@H](C)[C@@H]1NC(=O)[C@@H]2CCCN2C(=O)[C@@H]2CCCN2C(=O)[C@H]([C@@H](C)CC)NC(=O)[C@H](CO)NC(=O)[C@H](CCCCN)NC(=O)[C@H]([C@@H](C)O)NC(=O)[C@@H]2CSSC[C@H](NC1=O)C(=O)N[C@@H](Cc1ccccc1)C(=O)N[C@@H](CC(C)C)C(=O)N1CCC[C@H]1C(=O)c1cc(c(C)s1)C1=C(CCC1)c1cc(sc1C)C(=O)N[C@@H](CCCNC(=N)N)C(=O)N2 [Peptide S9n] (RCTKSIPPICFL; disulfide 2-10; linker N-C via X1) | 8.7 | 1.3±0.1×10^−3 M^−1 s^−1 | 55 ± 3.8 | 8.3 ± 0.6 | – | –
5 | CC[C@H](C)[C@@H]1NC(=O)[C@@H]2CCCN2C(=O)[C@@H]2CCCN2C(=O)[C@H]([C@@H](C)CC)NC(=O)[C@H](CO)NC(=O)[C@H](CCCCN)NC(=O)[C@H]([C@@H](C)O)NC(=O)[C@H](C)NC(=O)c2cc(c(C)s2)C2=C(CCC2)c2cc(sc2C)C(=O)[C@@H]2CCCN2C(=O)[C@H](C)NC1=O [Peptide S3] (ATKSIPPIA; linker N-C via X1) | – | – | – | 101 ± 9 | – | –
6 | CC[C@H](C)[C@@H]1NC(=O)[C@@H]2CCCN2C(=O)[C@@H]2CCCN2C(=O)[C@H]([C@@H](C)CC)NC(=O)[C@H](CO)NC(=O)[C@H](CCCCN)NC(=O)[C@H]([C@@H](C)O)NC(=O)[C@@H]2CSSC[C@H](NC1=O)C(=O)N[C@@H](Cc1ccccc1)C(=O)N1CCC[C@H]1C(=O)c1cc(c(C)s1)C1=C(CCC1)c1cc(sc1C)C(=O)N[C@@H](C(C)C)C(=O)N[C@@H](CCCNC(=N)N)C(=O)N2 [Peptide S8n] (VRCTKSIPPICF; disulfide 3-11; linker N-C via X1) | 4.1 | 5.3±1.4×10^−4 M^−1 s^−1 | 125 ± 8 | 5.2 ± 0.4 | – | –
7 | CC[C@H](C)[C@@H]1NC(=O)[C@@H]2CCCN2C(=O)[C@@H]2CCCN2C(=O)[C@H]([C@@H](C)CC)NC(=O)[C@H](CO)NC(=O)[C@H](CCCCN)NC(=O)[C@H]([C@@H](C)O)NC(=O)[C@@H]2CSSCC[C@H](NC1=O)C(=O)N[C@@H](CCCNC(=N)N)C(=O)N1CCC[C@H]1C(=O)c1cc(c(C)s1)C1=C(CCC1)c1cc(sc1C)C(=O)N[C@@H](Cc1ccccc1)C(=O)N2 [Peptide S5i] (FCTKSIPPI[hCys]R; disulfide 2-10; linker N-C via X1) | 1.7 | 5.0±0.8×10^−3 M^−1 s^−1 | 182 ± 16 | 102 ± 14 | – | –
8 | CC[C@H](C)[C@@H]1NC(=O)[C@@H]2CCCN2C(=O)[C@@H]2CCCN2C(=O)[C@H]([C@@H](C)CC)NC(=O)[C@H](CO)NC(=O)[C@H](CCCCN)NC(=O)[C@H]([C@@H](C)O)NC(=O)[C@@H]2CSSC[C@H](NC1=O)C(=O)N[C@@H](CCCNC(=N)N)C(=O)N1CCC[C@H]1C(=O)c1cc(c(C)s1)C1=C(CCC1)c1cc(sc1C)C(=O)N[C@@H](Cc1ccccc1)C(=O)N2 [Peptide S1i] (FCTKSIPPICR; disulfide 2-10; linker N-C via X1) | – | – | – | 13.4 ± 1.4 | – | –
9 | CC[C@H](C)[C@@H]1NC(=O)[C@@H]2CCCN2C(=O)[C@@H]2CCCN2C(=O)[C@H]([C@@H](C)CC)NC(=O)[C@H](CO)NC(=O)[C@H](CCCCN)NC(=O)[C@H]([C@@H](C)O)NC(=O)[C@@H]2Cc3cn(nn3)CCC[C@H](NC1=O)C(=O)N[C@@H](Cc1ccccc1)C(=O)N1CCC[C@H]1C(=O)c1cc(c(C)s1)C1=C(CCC1)c1cc(sc1C)C(=O)N[C@@H](CCCNC(=N)N)C(=O)N2 [Peptide S7n] (R[Pra]TKSIPPI[Orn(N3)]F; triazole 2-10; linker N-C via X1) | 30.5 | 6.1±1.2×10^−2 M^−1 s^−1 | 2200 ± 214 | 63.4 ± 4.4 | – | –
10 | CC[C@H](C)[C@@H]1NC(=O)[C@@H]2CCCN2C(=O)[C@@H]2CCCN2C(=O)[C@H]([C@@H](C)CC)NC(=O)[C@H](CO)NC(=O)[C@H](CCCCN)NC(=O)[C@H]([C@@H](C)O)NC(=O)[C@@H]2CSSCC[C@H](NC1=O)C(=O)N[C@@H](Cc1ccccc1)C(=O)N1CCC[C@H]1C(=O)c1cc(c(C)s1)C1=C(CCC1)c1cc(sc1C)C(=O)N[C@@H](CCCNC(=N)N)C(=O)N2 [Peptide S5n] (RCTKSIPPI[hCys]F; disulfide 2-10; linker N-C via X1) | 13.6 | 3.4±0.5×10^−2 M^−1 s^−1 | 231 ± 14 | 95 ± 6 | – | –
11 | CC[C@H](C)[C@@H]1NC(=O)[C@@H]2CCCN2C(=O)[C@@H]2CCCN2C(=O)[C@H]([C@@H](C)CC)NC(=O)[C@H](CO)NC(=O)[C@H](CCCCN)NC(=O)[C@H]([C@@H](C)O)NC(=O)[C@@H]2CSSC[C@H](NC1=O)C(=O)N[C@@H](Cc1ccccc1)C(=O)N1CCC[C@H]1C(=O)c1cc(c(C)s1)C1=C(CCC1)c1cc(sc1C)C(=O)N[C@@H](CCCNC(=N)N)C(=O)N2 [Peptide S1n] (RCTKSIPPICF; disulfide 2-10; linker N-C via X1) | – | – | – | 4.9 ± 0.3 | – | –
12 | CC[C@H](C)[C@@H]1NC(=O)[C@@H]2CCCN2C(=O)[C@@H]2CCCN2C(=O)[C@H]([C@@H](C)CC)NC(=O)[C@H](CO)NC(=O)[C@H](CCCCN)NC(=O)[C@H]([C@@H](C)O)NC(=O)[C@@H]2Cc3cn(nn3)CC[C@H](NC1=O)C(=O)N[C@@H](Cc1ccccc1)C(=O)N1CCC[C@H]1C(=O)c1cc(c(C)s1)C1=C(CCC1)c1cc(sc1C)C(=O)N[C@@H](CCCNC(=N)N)C(=O)N2 [Peptide S6n] (R[Pra]TKSIPPI[Aha]F; triazole 2-10; linker N-C via X1) | 3.7 | 2.5±0.8×10^−2 M^−1 s^−1 | – | 135 ± 8 | 46.6 | 8.3
13 | CC[C@H](C)[C@@H]1NC(=O)[C@@H]2CCCN2C(=O)[C@@H]2CCCN2C(=O)[C@H]([C@@H](C)CC)NC(=O)[C@H](CO)NC(=O)[C@H](CCCCN)NC(=O)[C@H]([C@@H](C)O)NC(=O)c2cc(c(C)s2)C2=C(CCC2)c2cc(sc2C)C(=O)[C@@H]2CCCN2C1=O [Peptide S4] (TKSIPPI; linker N-C via X1) | – | – | – | 22 ± 3 | – | –
14 | CC[C@H](C)[C@@H]1NC(=O)[C@@H]2CCCN2C(=O)[C@@H]2CCCN2C(=O)[C@H]([C@@H](C)CC)NC(=O)[C@H](CO)NC(=O)[C@H](CCCCN)NC(=O)[C@H]([C@@H](C)O)NC(=O)[C@@H]2Cc3cn(nn3)CCC[C@H](NC1=O)C(=O)N[C@@H](CCCNC(=N)N)C(=O)N[C@@H](CC(C)C)C(=O)N1CCC[C@H]1C(=O)c1cc(c(C)s1)C1=C(CCC1)c1cc(sc1C)C(=O)N[C@@H](C(C)C)C(=O)N[C@@H](Cc1ccccc1)C(=O)N2 [Peptide S12i] (VF[Pra]TKSIPPI[Orn(N3)]RL; triazole 3-11; linker N-C via X1) | 3.0 | 4.2±0.4×10^−2 M^−1 s^−1 | – | 2440 ± 215 | – | –
